The values that follow come from patent US20060165612A1, “Compositions for hygienic hand disinfection and disinfectant handwashing” (priority 2005, published 2006).

`CCCCC(CC)COCC(O)CO` (stereo not shown) [1-(2-ethylhexyl)glycerol ether, 1-(2-Ethylhexyl)glycerol ether] registered a solubility in water of 0.1 % by weight.
